Experimental data taken from ChEMBL document CHEMBL1201862, “PubChem BioAssay data set” (2004).
Active and inactive are the calls of the source.

Tests used:
[1] = A cytotoxicity screen of small molecule inhibitors of the PhoP region in Salmonella typhi identified in the primary screen. [Related pubchem assays: 1850, 1864, 1985 ]; type: functional
[2] = molecular target: T1, Estrogen receptor beta (Homo sapiens, UniProt Q92731); assay: ERβ–SRC-3 coactivator interaction inhibitors, confirmation, orthogonal assay, biochemical, ELISA, streptavidin-HRP readout (AID 1060)
[3] = cells; type: functional, cell-based
[4] = molecular target: T2, Trace amine-associated receptor 1 (Homo sapiens, UniProt Q96RJ0); assay: Fluorescence-based cell-based high throughput dose response assay to identify agonists of the human trace amine associated receptor 1 (TAAR1).; type: functional
T2 sequence (Q96RJ0 whole entry): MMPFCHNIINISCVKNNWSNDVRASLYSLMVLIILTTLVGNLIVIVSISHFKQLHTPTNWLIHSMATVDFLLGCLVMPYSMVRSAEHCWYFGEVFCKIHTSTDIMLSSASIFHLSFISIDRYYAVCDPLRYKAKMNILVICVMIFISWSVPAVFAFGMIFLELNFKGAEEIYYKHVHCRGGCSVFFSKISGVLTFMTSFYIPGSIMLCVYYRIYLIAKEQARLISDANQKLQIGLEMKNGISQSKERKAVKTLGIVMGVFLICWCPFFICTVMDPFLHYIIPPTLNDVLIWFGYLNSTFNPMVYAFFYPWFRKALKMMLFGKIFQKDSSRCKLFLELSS

[5] = molecular target: T2, Trace amine-associated receptor 1; assay: Counterscreen for agonists of the human trace amine associated receptor 1 (hTAAR1): Fluorescence-based cell-based high throughput dose response assay to identify hTAAR1 agonist that also desensitize TAAR1 receptor response.; type: functional
[6] = cells; type: functional, cell-based; remark: listed apart in the source
[7] = molecular target: T3, Estrogen receptor (Homo sapiens, UniProt P03372);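 also: potency for inhibiting coactivator peptide recruitment to the receptor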
T3 sequence (P03372 whole entry): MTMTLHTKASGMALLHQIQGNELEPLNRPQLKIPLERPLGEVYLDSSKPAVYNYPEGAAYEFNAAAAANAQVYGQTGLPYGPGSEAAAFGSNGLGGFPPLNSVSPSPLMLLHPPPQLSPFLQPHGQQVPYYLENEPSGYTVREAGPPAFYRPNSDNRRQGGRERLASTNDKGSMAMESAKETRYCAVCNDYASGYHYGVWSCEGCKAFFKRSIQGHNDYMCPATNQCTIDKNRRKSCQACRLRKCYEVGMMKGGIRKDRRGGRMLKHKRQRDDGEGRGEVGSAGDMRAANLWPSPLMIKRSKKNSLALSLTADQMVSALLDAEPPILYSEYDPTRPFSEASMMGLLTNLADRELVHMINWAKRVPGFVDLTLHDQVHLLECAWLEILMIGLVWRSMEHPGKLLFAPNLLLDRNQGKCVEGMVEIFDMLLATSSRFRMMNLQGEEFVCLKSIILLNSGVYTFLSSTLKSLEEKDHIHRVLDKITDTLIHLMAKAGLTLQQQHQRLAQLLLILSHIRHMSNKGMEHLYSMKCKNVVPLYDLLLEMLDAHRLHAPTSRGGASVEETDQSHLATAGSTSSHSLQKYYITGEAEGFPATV

[8] = molecular target: T1, Estrogen receptor beta
[9] = growth suppression of PTEN-null colon cells, dose response, cell-based, HCT116 PTEN knockout (AID 1047); type: functional;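 also: HCT116 colon tumor cells with PTEN knocked out; cells exposed to compound for 60 hours before readout; potency for loss of cell viability measured by luminescence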
[10] = growth suppression of beta-catenin-knockout colon cells, dose response, cell-based, HCT116, human colon tumor (AID 1045); type: functional;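 also: HCT116 colon tumor cells with beta catenin knocked out; cells exposed to compound for 60 hours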
[11] = molecular target: Induced myeloid leukemia cell differentiation protein Mcl-1 (Homo sapiens, UniProt Q07820); type: functional
[12] = molecular target: T4, Tyrosine-protein phosphatase non-receptor type 7 (Homo sapiens, UniProt P35236); assay: inhibitors of human HePTP phosphatase, […], biochemical, absorbance, leukemia target (AID 521); type: functional
T4 sequence (P35236 whole entry): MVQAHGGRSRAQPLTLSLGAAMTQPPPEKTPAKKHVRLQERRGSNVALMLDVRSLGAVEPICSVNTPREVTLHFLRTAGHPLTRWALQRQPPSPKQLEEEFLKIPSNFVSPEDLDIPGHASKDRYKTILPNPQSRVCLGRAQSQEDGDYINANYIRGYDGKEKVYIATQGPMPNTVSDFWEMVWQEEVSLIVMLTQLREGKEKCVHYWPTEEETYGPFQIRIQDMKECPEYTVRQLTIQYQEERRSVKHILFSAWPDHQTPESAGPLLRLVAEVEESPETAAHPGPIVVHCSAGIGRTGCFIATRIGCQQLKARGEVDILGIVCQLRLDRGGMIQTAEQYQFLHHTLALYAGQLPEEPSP

[13] = molecular target: T5, Short transient receptor potential channel 4 (Mus musculus, UniProt Q9QUQ5); assay: mouse TRPC4 channel inhibitors, dose response, cell-based, HEK293 TRPC4/mu-opioid, Fluo-4 calcium (AID 434942); type: functional;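 also: potency of inhibitors blocking the TRPC4 calcium response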
T5 sequence (Q9QUQ5 whole entry): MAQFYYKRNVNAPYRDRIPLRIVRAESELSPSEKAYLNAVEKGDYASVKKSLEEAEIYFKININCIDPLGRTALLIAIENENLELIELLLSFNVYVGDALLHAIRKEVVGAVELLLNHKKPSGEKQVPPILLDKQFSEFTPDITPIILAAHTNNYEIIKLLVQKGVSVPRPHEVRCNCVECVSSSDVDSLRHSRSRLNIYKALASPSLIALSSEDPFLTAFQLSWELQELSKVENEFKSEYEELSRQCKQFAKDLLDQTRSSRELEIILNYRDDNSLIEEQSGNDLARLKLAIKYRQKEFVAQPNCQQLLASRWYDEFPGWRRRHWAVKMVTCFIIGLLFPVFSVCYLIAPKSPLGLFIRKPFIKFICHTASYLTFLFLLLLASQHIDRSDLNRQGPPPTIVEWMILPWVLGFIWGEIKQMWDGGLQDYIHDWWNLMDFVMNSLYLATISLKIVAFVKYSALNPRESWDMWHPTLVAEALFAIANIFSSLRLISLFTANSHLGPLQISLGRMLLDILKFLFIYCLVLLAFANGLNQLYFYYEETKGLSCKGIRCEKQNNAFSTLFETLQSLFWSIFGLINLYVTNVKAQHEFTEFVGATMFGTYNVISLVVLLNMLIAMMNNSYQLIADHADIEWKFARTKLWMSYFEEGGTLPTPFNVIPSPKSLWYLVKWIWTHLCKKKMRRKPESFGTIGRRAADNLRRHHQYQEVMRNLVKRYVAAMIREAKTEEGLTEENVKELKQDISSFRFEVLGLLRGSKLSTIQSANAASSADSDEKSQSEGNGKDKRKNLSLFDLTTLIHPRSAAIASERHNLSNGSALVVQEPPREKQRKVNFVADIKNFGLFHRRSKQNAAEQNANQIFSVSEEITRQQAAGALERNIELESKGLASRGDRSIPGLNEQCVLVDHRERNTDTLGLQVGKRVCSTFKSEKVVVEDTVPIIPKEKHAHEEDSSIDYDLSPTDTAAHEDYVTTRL

[14] = molecular target: T6, Mannose-6-phosphate isomerase (Homo sapiens, UniProt P34949); assay: human PMI inhibitors, high substrate, primary screen, biochemical, fluorescence intensity, high mannose 6-phosphate (AID 1220)
T6 sequence (P34949 whole entry): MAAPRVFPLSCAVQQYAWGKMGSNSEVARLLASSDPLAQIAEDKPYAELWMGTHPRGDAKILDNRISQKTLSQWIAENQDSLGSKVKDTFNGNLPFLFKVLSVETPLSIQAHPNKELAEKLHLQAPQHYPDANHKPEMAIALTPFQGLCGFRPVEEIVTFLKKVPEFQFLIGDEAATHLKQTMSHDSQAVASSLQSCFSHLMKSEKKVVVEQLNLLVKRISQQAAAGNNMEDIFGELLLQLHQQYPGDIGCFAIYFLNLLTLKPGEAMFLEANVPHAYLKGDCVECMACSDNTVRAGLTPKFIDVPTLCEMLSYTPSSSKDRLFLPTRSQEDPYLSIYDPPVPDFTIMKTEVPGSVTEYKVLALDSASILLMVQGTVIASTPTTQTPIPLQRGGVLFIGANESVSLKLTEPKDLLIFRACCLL

[15] = molecular target: Eukaryotic translation initiation factor 4E (Mus musculus, UniProt P63073); assay: eIF4E–eIF4G protein interaction inhibitors, dose response, biochemical, TR-FRET (AID 855); type: functional;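 also: potency for disrupting eIF4E binding to eIF4GI seen as loss of FRET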
[16] = molecular target: T7, Aminopeptidase N (Plasmodium falciparum FcB1/Columbia, UniProt O96935); assay: P. falciparum M1AAP inhibitors, biochemical, fluorogenic H-Leu-NHMec substrate, 1536-well (AID 1445); parameters: species or system Plasmodium falciparum 3D7, 3D7
T7 sequence (O96935 whole entry): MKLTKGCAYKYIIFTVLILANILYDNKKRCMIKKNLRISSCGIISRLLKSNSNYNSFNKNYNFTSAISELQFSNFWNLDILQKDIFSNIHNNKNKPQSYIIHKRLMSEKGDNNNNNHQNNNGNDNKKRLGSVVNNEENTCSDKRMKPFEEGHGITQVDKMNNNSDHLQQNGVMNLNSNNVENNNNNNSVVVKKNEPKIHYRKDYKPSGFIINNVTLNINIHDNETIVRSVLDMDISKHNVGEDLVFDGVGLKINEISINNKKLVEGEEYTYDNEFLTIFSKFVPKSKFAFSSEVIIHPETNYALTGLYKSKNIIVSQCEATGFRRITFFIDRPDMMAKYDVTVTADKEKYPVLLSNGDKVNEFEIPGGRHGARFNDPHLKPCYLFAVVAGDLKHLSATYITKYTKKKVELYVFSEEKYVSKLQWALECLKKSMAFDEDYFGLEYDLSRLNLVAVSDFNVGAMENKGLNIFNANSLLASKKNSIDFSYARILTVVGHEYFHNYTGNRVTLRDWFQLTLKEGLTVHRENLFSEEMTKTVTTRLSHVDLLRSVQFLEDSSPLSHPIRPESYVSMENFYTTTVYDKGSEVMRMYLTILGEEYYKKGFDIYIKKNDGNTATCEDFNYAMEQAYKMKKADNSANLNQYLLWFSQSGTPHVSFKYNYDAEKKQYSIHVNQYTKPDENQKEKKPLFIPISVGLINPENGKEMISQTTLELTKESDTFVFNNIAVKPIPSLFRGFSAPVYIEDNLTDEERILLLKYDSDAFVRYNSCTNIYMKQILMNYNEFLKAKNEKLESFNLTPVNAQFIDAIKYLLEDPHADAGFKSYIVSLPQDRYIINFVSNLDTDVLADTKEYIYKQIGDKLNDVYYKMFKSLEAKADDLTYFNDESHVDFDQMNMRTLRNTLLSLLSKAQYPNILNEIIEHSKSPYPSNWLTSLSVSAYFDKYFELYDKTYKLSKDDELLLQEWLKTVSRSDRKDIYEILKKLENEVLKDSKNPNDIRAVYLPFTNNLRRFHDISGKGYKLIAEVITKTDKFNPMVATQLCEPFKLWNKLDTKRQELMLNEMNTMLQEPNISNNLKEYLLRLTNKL

[17] = molecular target: FAD-linked sulfhydryl oxidase ALR (Homo sapiens, UniProt P55789); assay: inhibitors of human ALR sulfhydryl oxidase, dose response, biochemical, H2O2 detection, luminescence, cherry-pick (AID 493248)
[18] = molecular target: T8, Leucine aminopeptidase (Plasmodium falciparum 3D7, UniProt Q8IL11); assay: P. falciparum M17LAP inhibitors, primary screen, biochemical, fluorogenic H-Leu-NHMec substrate, 1536-well (AID 1619); type: functional
T8 sequence (Q8IL11 whole entry): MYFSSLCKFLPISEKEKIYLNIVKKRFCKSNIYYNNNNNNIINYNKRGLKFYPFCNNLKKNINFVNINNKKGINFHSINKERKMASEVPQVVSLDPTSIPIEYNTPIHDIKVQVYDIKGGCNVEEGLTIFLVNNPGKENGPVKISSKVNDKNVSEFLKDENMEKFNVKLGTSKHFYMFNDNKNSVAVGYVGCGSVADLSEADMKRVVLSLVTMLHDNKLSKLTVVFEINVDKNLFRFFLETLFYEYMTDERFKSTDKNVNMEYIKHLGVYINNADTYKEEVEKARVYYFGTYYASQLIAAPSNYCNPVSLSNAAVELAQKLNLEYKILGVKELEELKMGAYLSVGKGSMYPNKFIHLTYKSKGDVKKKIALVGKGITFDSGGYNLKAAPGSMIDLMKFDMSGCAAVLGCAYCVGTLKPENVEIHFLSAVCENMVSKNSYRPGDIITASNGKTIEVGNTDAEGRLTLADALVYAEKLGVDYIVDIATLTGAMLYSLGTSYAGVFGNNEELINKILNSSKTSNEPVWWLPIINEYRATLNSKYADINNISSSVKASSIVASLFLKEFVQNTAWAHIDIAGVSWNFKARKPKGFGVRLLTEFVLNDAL

T1 sequence (Q92731 whole entry): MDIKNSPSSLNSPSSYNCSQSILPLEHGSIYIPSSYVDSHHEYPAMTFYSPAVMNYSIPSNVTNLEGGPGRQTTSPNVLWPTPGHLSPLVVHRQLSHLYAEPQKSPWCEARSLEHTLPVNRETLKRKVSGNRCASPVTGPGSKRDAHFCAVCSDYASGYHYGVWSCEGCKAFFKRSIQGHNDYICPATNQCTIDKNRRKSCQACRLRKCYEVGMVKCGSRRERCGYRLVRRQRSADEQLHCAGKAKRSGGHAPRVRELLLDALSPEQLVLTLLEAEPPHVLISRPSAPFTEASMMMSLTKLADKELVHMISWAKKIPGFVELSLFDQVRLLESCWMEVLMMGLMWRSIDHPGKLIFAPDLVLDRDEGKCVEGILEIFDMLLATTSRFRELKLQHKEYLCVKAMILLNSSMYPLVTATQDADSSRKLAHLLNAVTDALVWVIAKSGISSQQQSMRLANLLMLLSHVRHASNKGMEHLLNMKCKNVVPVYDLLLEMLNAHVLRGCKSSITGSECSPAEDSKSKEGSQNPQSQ
Chain of FAD-linked sulfhydryl oxidase ALR (P55789 whole entry): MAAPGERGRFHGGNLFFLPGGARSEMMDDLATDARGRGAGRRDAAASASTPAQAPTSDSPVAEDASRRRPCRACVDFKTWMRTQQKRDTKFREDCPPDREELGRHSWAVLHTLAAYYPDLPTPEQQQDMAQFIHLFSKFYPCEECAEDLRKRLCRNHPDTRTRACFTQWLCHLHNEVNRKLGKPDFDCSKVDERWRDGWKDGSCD
Chain of Induced myeloid leukemia cell differentiation protein Mcl-1 (Q07820 whole entry): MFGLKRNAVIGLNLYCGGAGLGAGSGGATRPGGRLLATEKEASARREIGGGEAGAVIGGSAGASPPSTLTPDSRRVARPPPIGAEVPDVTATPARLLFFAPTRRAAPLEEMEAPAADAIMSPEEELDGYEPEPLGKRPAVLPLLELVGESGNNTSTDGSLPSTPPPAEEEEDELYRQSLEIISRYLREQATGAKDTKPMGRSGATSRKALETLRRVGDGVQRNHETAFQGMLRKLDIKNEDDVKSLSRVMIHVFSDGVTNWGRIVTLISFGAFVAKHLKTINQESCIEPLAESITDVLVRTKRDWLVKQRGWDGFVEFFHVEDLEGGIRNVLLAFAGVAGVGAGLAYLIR
Chain of Eukaryotic translation initiation factor 4E (P63073 whole entry): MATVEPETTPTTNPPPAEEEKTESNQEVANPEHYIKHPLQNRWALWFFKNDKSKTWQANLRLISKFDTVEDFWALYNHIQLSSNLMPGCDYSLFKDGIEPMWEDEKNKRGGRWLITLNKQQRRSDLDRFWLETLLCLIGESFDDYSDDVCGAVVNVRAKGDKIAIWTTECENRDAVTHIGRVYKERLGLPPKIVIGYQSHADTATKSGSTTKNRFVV

CC(C)CCNC(=O)c1cc2c(s1)-c1ccccc1S(=O)(=O)C2
EC50 [1]: > 50 µM (active)

CN1CCN(c2ccc(NC(=O)c3cccc(OCc4ccccc4)c3)cc2)CC1
IC50 [2]: 0.0793 µM (not active)
IC50 [3]: > 29.9 µM (inactive)
EC50 [4]: 9.36 µM (active)
IC50 [5]: 9.06 µM (active)
EC50 [6]: > 29.9 µM (inactive)

CCN1CCCC1Cn1cnc2c3cc(Cl)ccc3nc-2c1O (stereo not given)
EC50 [1]: > 50 µM (active)

CCOc1cccc2cc(-c3cn4cc(C)ccc4n3)c(=O)oc12
IC50 [7]: 3.82 µM (active)
IC50 [8]: > 50 µM (not active)
EC50 [9]: 1.33 µM (active)
IC50 [2]: > 50 µM (not active)
EC50 [10]: 2.46 µM (active)

CCc1cc(C(=O)N=Nc2c(O)[nH]c3ccc([N+](=O)[O-])cc23)c2ccccc2n1
IC50 [11]: 6.88 µM (active)

Cn1c(=O)c2c(nc(SCc3cccnc3)n2Cc2ccc(F)cc2)n(C)c1=O
IC50 [12]: > 100 µM (not active)
EC50 [13]: 0.944 µM (active)

OCCN1CCN(C(c2cccs2)c2ccc3cccnc3c2O)CC1 (stereo not given)
IC50 [2]: 2.82 µM (active)
IC50 [14]: > 50 µM (not active)
IC50 [15]: > 64 µM (inactive)

CC(C)OC(=O)c1cccc(C(=O)Oc2ccc(Br)cc2)n1
EC50 [1]: > 50 µM (active)

O=C(Cc1ccc(S(=O)(=O)N2CCOCC2)s1)NCCC(c1ccccc1)c1ccccc1
IC50 [16]: 2.76 µM (active)

Cc1c(CCC(=O)O)c(=O)oc2cc3occ(-c4ccc(F)cc4)c3cc12
IC50 [16]: 16.3 µM (active)
AC50 [17]: 2.68 µM (active)

O=C(c1ccco1)N1CCCN(Cc2nc(-c3ccc4c(c3)OCO4)no2)CC1
EC50 [1]: > 50 µM (active)

Cn1nnnc1SCC1=C(C(=O)O)N2C(=O)[C@@H](NC(=O)[C@H](O)c3ccccc3)[C@H]2SC1 [CEFAMANDOLE SODIUM]
IC50 [18]: 12.1 µM (active)
IC50 [12]: 0.1 µM (active)
